Assay results taken from publication PMC7093416, “Selective USP7 inhibition elicits cancer cell killing through a p53-dependent mechanism” (Scientific Reports, 2020).
Several values for one entry are separate records, joined by “and”; a condition that tells them apart may be missing. Equal values may be shown once.

Test system: panel of 484 cancer cell lines
Assay: PRISM cancer cell line profiling, 5 days
Type: cell-based
Set-up: Viability: scale not given here; AUC: unit not given beside the values
Procedure: Cancer cell line profiling was performed using the Broad’s PRISM platform. Cell treatment and data analysis were performed as described in Yu et al[42]. Raw Luminex signal was converted to AUC values for each cell line as described. The resulting AUC profile for each compound was modeled against DepMap using the limma package in R[71]. Because hotspot mutation analysis was performed against DepMap, TP53 annotations in Fig. 6c,d are directly from DepMap.

[1] = HEC59_ENDOMETRIUM, pert_dose 6.10E-04
[2] = HEC108_ENDOMETRIUM, pert_dose 6.10E-04
[3] = HEC151_ENDOMETRIUM, pert_dose 6.10E-04
[4] = HEP3B217_LIVER, pert_dose 6.10E-04
[5] = HEYA8_OVARY, pert_dose 6.10E-04
[6] = HPAC_PANCREAS, pert_dose 6.10E-04
[7] = HS294T_SKIN, pert_dose 6.10E-04
[8] = HS618T_LUNG, pert_dose 6.10E-04
[9] = HS729_SOFT_TISSUE, pert_dose 6.10E-04
[10] = HS766T_PANCREAS, pert_dose 6.10E-04
[11] = HS852T_SKIN, pert_dose 6.10E-04
[12] = HS939T_SKIN, pert_dose 6.10E-04
[13] = HSC2_UPPER_AERODIGESTIVE_TRACT, pert_dose 6.10E-04
[14] = HSC3_UPPER_AERODIGESTIVE_TRACT, pert_dose 6.10E-04
[15] = HT29_LARGE_INTESTINE, pert_dose 6.10E-04
[16] = HT55_LARGE_INTESTINE, pert_dose 6.10E-04
[17] = HUCCT1_BILIARY_TRACT, pert_dose 6.10E-04
[18] = HUH28_BILIARY_TRACT, pert_dose 6.10E-04
[19] = IGROV1_OVARY, pert_dose 6.10E-04
[20] = IPC298_SKIN, pert_dose 6.10E-04

COc1ccc(C2=N[C@@H](c3ccc(Cl)cc3)[C@@H](c3ccc(Cl)cc3)N2C(=O)N2CCNC(=O)C2)c(OC(C)C)c1 [Nutlin-3A]
AUC (HEC59_ENDOMETRIUM): 1.062 | MFI HEC59_ENDOMETRIUM [1]: 10418.5 and 8852 and 7376 and 10636 and 7469 | Viability [1]: 1.236 | AUC (HEC108_ENDOMETRIUM): 0.9813 | MFI HEC108_ENDOMETRIUM [2]: 22169.5 and 21680 and 21571 and 20999 and 14974 | Viability [2]: 1.448 | AUC (HEC151_ENDOMETRIUM): 0.8923 | MFI HEC151_ENDOMETRIUM [3]: 15512 and 13471 and 16551 and 13036 and 13374 | Viability [3]: 1.158 | AUC (HEC251_ENDOMETRIUM): 1.051 | AUC (HEC265_ENDOMETRIUM): 0.862 | Viability (HEC265_ENDOMETRIUM, pert_dose 6.10E-04): 1.3422 | AUC (HEP3B217_LIVER): 1.168 | MFI HEP3B217_LIVER [4]: 4895 and 4355 and 5398 and 5541 and 7085.5 | Viability [4]: 1.05 | AUC (HEYA8_OVARY): 0.8732 | MFI HEYA8_OVARY [5]: 14485.5 and 11701.5 and 12129 and 10947 and 12823 | Viability [5]: 1.321 | AUC (HGC27_STOMACH): 1.116 | AUC (HLF_LIVER): 1.153 | AUC (HMC18_BREAST): 1.214 | MFI HMC18_BREAST (HMC18_BREAST, pert_dose 6.10E-04): 29555.5 and 31726 and 28535 and 27291 and 25031.5 | AUC (HOS_BONE): 1.0473 | MFI HOS_BONE (HOS_BONE, pert_dose 6.10E-04): 25115 and 17203.5 and 23311.5 and 23304 and 24478 | Viability (HOS_BONE, pert_dose 6.10E-04): 1.257 | AUC (HPAC_PANCREAS): 1.491 | MFI HPAC_PANCREAS [6]: 14040 and 13836.5 and 12138 and 14386 and 13656 | Viability [6]: 1.593 | AUC (HS294T_SKIN): 0.8649 | MFI HS294T_SKIN [7]: 15509 and 11081.5 and 12624.5 and 16477 and 13812.5 | Viability [7]: 1.3841 | AUC (HS618T_LUNG): 1.119 | MFI HS618T_LUNG [8]: 423.5 and 422.5 and 583 and 491 and 486.5 | Viability [8]: 1.131 | AUC (HS729_SOFT_TISSUE): 1.053 | MFI HS729_SOFT_TISSUE [9]: 5267.5 and 3467.5 and 6111 and 4197 and 4598 | Viability [9]: 1.333 | AUC (HS766T_PANCREAS): 1.165 | MFI HS766T_PANCREAS [10]: 2873 and 4107.5 and 4713 and 3779 and 3684 | Viability [10]: 0.8691 | AUC (HS852T_SKIN): 0.95 | MFI HS852T_SKIN [11]: 952 and 665.5 and 666.5 and 706 and 781.5 | Viability [11]: 1.404 | AUC (HS939T_SKIN): 0.8847 | MFI HS939T_SKIN [12]: 1676 and 1756.5 and 2260 and 2253 and 2240 | Viability [12]: 0.6815 | AUC (HS944T_SKIN): 1.082 | AUC (HSC2_UPPER_AERODIGESTIVE_TRACT): 0.986 | MFI HSC2_UPPER_AERODIGESTIVE_TRACT [13]: 16228 and 12093.5 and 8568 and 11207.5 and 10414 | Viability [13]: 1.409 | AUC (HSC3_UPPER_AERODIGESTIVE_TRACT): 1.141 | MFI HSC3_UPPER_AERODIGESTIVE_TRACT [14]: 19468 and 21785 and 24258 and 21275 and 18776 | Viability [14]: 1.0036 | AUC (HT29_LARGE_INTESTINE): 1.34 | MFI HT29_LARGE_INTESTINE [15]: 15605 and 16428.5 and 18104 and 14824 and 17298 | Viability [15]: 1.215 | AUC (HT55_LARGE_INTESTINE): 1.149 | MFI HT55_LARGE_INTESTINE [16]: 18343 and 20659.5 and 20881.5 and 14879 and 18638 | Viability [16]: 1.081 | AUC (HT144_SKIN): 0.8778 | AUC (HT1080_SOFT_TISSUE): 0.7842 | AUC (HT1376_URINARY_TRACT): 1.193 | AUC (HUCCT1_BILIARY_TRACT): 1.095 | MFI HUCCT1_BILIARY_TRACT [17]: 24976 and 22701 and 21301.5 and 24041 and 22645 | Viability [17]: 1.1214 | AUC (HUH6_LIVER): 1.038 | MFI HUH6_LIVER (HUH6_LIVER, pert_dose 6.10E-04): 2954 and 3148.5 and 3422 and 2906 and 2817 | Viability (HUH6_LIVER, pert_dose 6.10E-04): 1.443 | AUC (HUH7_LIVER): 1.414 | MFI HUH7_LIVER (HUH7_LIVER, pert_dose 6.10E-04): 2519 and 3872.5 and 2817 and 4186 and 2978 | Viability (HUH7_LIVER, pert_dose 6.10E-04): 1.154 | AUC (HUH28_BILIARY_TRACT): 1.075 | MFI HUH28_BILIARY_TRACT [18]: 10419.5 and 14552 and 18877 and 11771 and 16814 | Viability [18]: 1.064 | AUC (HUPT3_PANCREAS): 1.108 | MFI HUPT3_PANCREAS (HUPT3_PANCREAS, pert_dose 6.10E-04): 6399 and 3235.5 and 3378 and 3719 and 5662 | AUC (IALM_LUNG): 1.093 | MFI IALM_LUNG (IALM_LUNG, pert_dose 6.10E-04): 15214 and 17539 and 16640 and 15373 and 14718 | Viability (IALM_LUNG, pert_dose 6.10E-04): 0.9343 | AUC (IGR1_SKIN): 0.9397 | MFI IGR1_SKIN (IGR1_SKIN, pert_dose 6.10E-04): 9685 and 12749 and 10992 and 10674 and 10187.5 | Viability (IGR1_SKIN, pert_dose 6.10E-04): 1.096 | AUC (IGR37_SKIN): 1.088 | Viability (IGR37_SKIN, pert_dose 6.10E-04): 0.7539 | AUC (IGROV1_OVARY): 0.9652 | MFI IGROV1_OVARY [19]: 16733 and 14037 and 9860 and 14121 and 11292 | Viability [19]: 1.232 | AUC (IM95_STOMACH): 0.8918 | AUC (IPC298_SKIN): 1.102 | MFI IPC298_SKIN [20]: 24999 and 31830 and 20542 and 28455.5 and 32422 | Viability [20]: 1.1324 | AUC (ISHIKAWAHERAKLIO02ER_ENDOMETRIUM): 1.148
